# Results: patent US10584115B2, “Substituted pyridine and pyrazine BMI-1 inhibitors” (PTC Therapeutics, Inc., priority 2013, dated 2020)
# Counter-ions that a name gives are not always drawn.
# Tested on: Bmi-1 protein
# Experiment: Sandwich ELISA Assay (Bmi-1 protein level in HT-1080 cells after compound treatment)
# Format: cell-based
# Details: Table 1, Bmi-1 sandwich ELISA, read-out: ELISA EC50 value for Bmi-1 protein
# In short: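 HT-1080 cells exposed to compounds for 40–48 h at 37 °C (0.5% DMSO final), then lysed. Bmi-1 in lysates measured by sandwich ELISA (mouse monoclonal capture, rabbit anti-Bmi-1 detection, HRP anti-rabbit, TMB), read at OD450 with OD570 reference against a recombinant Bmi-1 standard curve (0–8000 pg/mL).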
row,EC50 [µM],Structure (SMILES)
1,0.001 to 0.01,"FC(F)Oc1ccc(Nc2cncc(-c3c(C(F)(F)F)nn4ccccc34)n2)cc1 [compound 72, N-[4-(difluoromethoxy)phenyl]-6-[2-(trifluoromethyl)pyrazolo[1,5-a]pyridin-3-yl]pyrazin-2-amine]"
2,0.01 to 0.1,"Cc1nc2ccccc2n1-c1cncc(Nc2ccc(C(F)(F)F)nc2)n1 [compound 73, 6-(2-methyl-1H-benzimidazol-1-yl)-N-[6-(trifluoromethyl)pyridin-3-yl]pyrazin-2-amine]"
3,< 0.001,"COc1ccc(Nc2cncc(-c3c(C(F)(F)F)nn4ccccc34)n2)cc1 [compound 74, N-(4-methoxyphenyl)-6-[2-(trifluoromethyl)pyrazolo[1,5-a]pyridin-3-yl]pyrazin-2-amine]"
4,0.001 to 0.01,"Cc1ccc(Nc2cncc(-c3c(C(F)(F)F)nn4ccccc34)n2)cc1 [compound 75, N-(4-methylphenyl)-6-[2-(trifluoromethyl)pyrazolo[1,5-a]pyridin-3-yl]pyrazin-2-amine]"
5,0.1 to 3,"Nc1nc2ccccc2n1-c1cncc(Nc2ccc(C(F)(F)F)cc2)n1 [compound 76, 1-(6-{[4-(trifluoromethyl)phenyl]amino}pyrazin-2-yl)-1H-benzimidazol-2-amine]"
6,0.01 to 0.1,"COc1nc2ccccc2n1-c1cncc(Nc2ccc(C(F)(F)F)cc2)n1 [compound 77, 6-(2-methoxy-1H-benzimidazol-1-yl)-N-[4-(trifluoromethyl)phenyl]pyrazin-2-amine]"
7,0.1 to 3,"CC(=O)O[C@@H](C)c1nc2ccccc2n1-c1cncc(Nc2ccc(C(F)(F)F)cc2)n1 [compound 78, (1S)-1-[1-(6-{[4-(trifluoromethyl)phenyl]amino}pyrazin-2-yl)-1H-benzimidazol-2-yl]ethyl acetate]"
8,0.01 to 0.1,"CCSc1nc2ccccc2n1-c1cncc(Nc2ccc(C(F)(F)F)cc2)n1 [compound 79, 6-[2-(ethylsulfanyl)-1H-benzimidazol-1-yl]-N-[4-(trifluoromethyl)phenyl]pyrazin-2-amine]"
9,0.1 to 3,"CCCCc1nc2ccccc2n1-c1cncc(Nc2ccc(C(F)(F)F)cc2)n1 [compound 80, 6-(2-butyl-1H-benzimidazol-1-yl)-N-[4-(trifluoromethyl)phenyl]pyrazin-2-amine]"
10,0.1 to 3,"CCOc1nc2ccccc2n1-c1cncc(Nc2ccc(C(F)(F)F)cc2)n1 [compound 81, 6-(2-ethoxy-1H-benzimidazol-1-yl)-N-[4-(trifluoromethyl)phenyl]pyrazin-2-amine]"
11,0.01 to 0.1,"Cc1nc2ncccc2n1-c1cncc(Nc2ccc(C(F)(F)F)cc2)n1 [compound 82, 6-(2-methyl-1H-imidazo[4,5-b]pyridin-1-yl)-N-[4-(trifluoromethyl)phenyl]pyrazin-2-amine]"
12,0.01 to 0.1,"CCc1nc2ncccc2n1-c1cncc(Nc2ccc(C(F)(F)F)cc2)n1 [compound 83, 6-(2-ethyl-1H-imidazo[4,5-b]pyridin-1-yl)-N-[4-(trifluoromethyl)phenyl]pyrazin-2-amine]"
13,0.01 to 0.1,"Cc1nc2ncccc2n1-c1cncc(Nc2ccc(OC(F)F)cc2)n1 [compound 85, N-[4-(difluoromethoxy)phenyl]-6-(2-methyl-1H-imidazo[4,5-b]pyridin-1-yl)pyrazin-2-amine]"
14,0.01 to 0.1,"COc1ccc(Nc2cncc(-c3cccc4nc(C5CC5)cn34)n2)cc1 [compound 86, 6-(2-cyclopropylimidazo[1,2-a]pyridin-5-yl)-N-(4-methoxyphenyl)pyrazin-2-amine]"
15,0.1 to 3,"FC1(F)Oc2ccc(Nc3cncc(-c4cccc5nc(C6CC6)cn45)n3)cc2O1 [compound 88, 6-(2-cyclopropylimidazo[1,2-a]pyridin-5-yl)-N-(2,2-difluoro-1,3-benzodioxol-5-yl)pyrazin-2-amine]"
16,0.1 to 3,"FC1(F)Oc2ccc(Nc3cncc(-c4c(C(F)(F)F)nn5ccccc45)n3)cc2O1 [compound 92, N-(2,2-difluoro-1,3-benzodioxol-5-yl)-6-[2-(trifluoromethyl)pyrazolo[1,5-a]pyridin-3-yl]pyrazin-2-amine]"
17,0.01 to 0.1,"FC(F)(F)c1ccc(Nc2cncc(-c3c(C(F)(F)F)nc4cnccn34)n2)cc1 [compound 93, 6-[2-(trifluoromethyl)imidazo[1,2-a]pyrazin-3-yl]-N-[4-(trifluoromethyl)phenyl]pyrazin-2-amine]"
18,0.1 to 3,"CCc1nc2ncncc2n1-c1cncc(Nc2ccc(C(F)(F)F)cc2)n1 [compound 94, 6-(8-ethyl-7H-purin-7-yl)-N-[4-(trifluoromethyl)phenyl]pyrazin-2-amine]"
19,0.01 to 0.1,"Cc1nc2ncccc2n1-c1cncc(Nc2ccc(OC(F)(F)F)cc2)n1 [compound 95, 6-(2-methyl-1H-imidazo[4,5-b]pyridin-1-yl)-N-[4-(trifluoromethoxy)phenyl]pyrazin-2-amine]"

row,EC50 [µM],Structure (SMILES)
1,0.1 to 3,"Cc1cc(Nc2cncc(-c3c(C(F)(F)F)nc4ccccn34)n2)on1 [compound 97, N-(3-methyl-1,2-oxazol-5-yl)-6-[2-(trifluoromethyl)imidazo[1,2-a]pyridin-3-yl]pyrazin-2-amine]"
2,0.01 to 0.1,"C[C@H](O)c1nc2ccccc2n1-c1cncc(Nc2ccc(C(F)(F)F)cc2)n1 [compound 98, (1S)-1-[1-(6-{[4-(trifluoromethyl)phenyl]amino}pyrazin-2-yl)-1H-benzimidazol-2-yl]ethanol]"
3,0.1 to 3,"FC(F)(F)Oc1ccc(Nc2cccc(-c3c(C(F)(F)F)nc4ncccn34)n2)cc1 [compound 99, N-[4-(trifluoromethoxy)phenyl]-6-[2-(trifluoromethyl)imidazo[1,2-a]pyrimidin-3-yl]pyridin-2-amine]"
4,0.01 to 0.1,"COc1ccc2nc(C(F)(F)F)c(-c3cccc(Nc4ccc(OC(F)(F)F)cc4)n3)n2c1 [compound 101, 6-[6-methoxy-2-(trifluoromethyl)imidazo[1,2-a]pyridin-3-yl]-N-[4-(trifluoromethoxy)phenyl]pyridin-2-amine]"
5,0.01 to 0.1,"COc1ccc2nc(C(F)(F)F)c(-c3cccc(Nc4ccc(C(F)(F)F)cc4)n3)n2c1 [compound 102, 6-[6-methoxy-2-(trifluoromethyl)imidazo[1,2-a]pyridin-3-yl]-N-[4-(trifluoromethyl)phenyl]pyridin-2-amine]"
6,0.01 to 0.1,"COc1ccc2nc(C(F)(F)F)c(-c3cccc(Nc4ccc(OC(F)F)cc4)n3)n2c1 [compound 103, N-[4-(difluoromethoxy)phenyl]-6-[6-methoxy-2-(trifluoromethyl)imidazo[1,2-a]pyridin-3-yl]pyridin-2-amine]"
7,0.01 to 0.1,"Cc1nn(C)c(C)c1-c1cncc(Nc2ccc(OC(F)(F)F)cc2)n1 [compound 105, N-[4-(trifluoromethoxy)phenyl]-6-(1,3,5-trimethyl-1H-pyrazol-4-yl)pyrazin-2-amine]"
8,< 0.001,"Cc1nn(C)c(C)c1-c1cncc(Nc2ccc(Br)cc2)n1 [compound 106, N-(4-bromophenyl)-6-(1,3,5-trimethyl-1H-pyrazol-4-yl)pyrazin-2-amine]"
9,0.01 to 0.1,"FC(F)Oc1ccc(Nc2cccc(-c3c(C(F)(F)F)nc4ncccn34)n2)cc1 [compound 108, N-[4-(difluoromethoxy)phenyl]-6-[2-(trifluoromethyl)imidazo[1,2-a]pyrimidin-3-yl]pyridin-2-amine]"
10,0.1 to 3,"Oc1ccc2nc(C(F)(F)F)c(-c3cccc(Nc4ccc(OC(F)(F)F)cc4)n3)n2c1 [compound 110, 3-(6-{[4-(trifluoromethoxy)phenyl]amino}pyridin-2-yl)-2-(trifluoromethyl)imidazo[1,2-a]pyridin-6-ol]"
11,0.01 to 0.1,"Oc1ccc2nc(C(F)(F)F)c(-c3cccc(Nc4ccc(C(F)(F)F)cc4)n3)n2c1 [compound 111, 2-(trifluoromethyl)-3-(6-{[4-(trifluoromethyl)phenyl]amino}pyridin-2-yl)imidazo[1,2-a]pyridin-6-ol]"
12,0.1 to 3,"COc1ccc2nc(C(F)(F)F)c(-c3cccc(Nc4ccc(OC=O)cc4)n3)n2c1 [compound 112, 4-({6-[6-methoxy-2-(trifluoromethyl)imidazo[1,2-a]pyridin-3-yl]pyridin-2-yl}amino)phenyl formate]"
13,0.1 to 3,"COc1ccc2nc(C(F)(F)F)c(-c3cccc(Nc4ccc(O)cc4)n3)n2c1 [compound 113, 4-({6-[6-methoxy-2-(trifluoromethyl)imidazo[1,2-a]pyridin-3-yl]pyridin-2-yl}amino)phenol]"
14,0.001 to 0.01,"FC(F)(F)c1ccc(Nc2cncc(-c3c(C(F)(F)F)nc4sccn34)n2)cc1 [compound 118, 6-[6-(trifluoromethyl)imidazo[2,1-b][1,3]thiazol-5-yl]-N-[4-(trifluoromethyl)phenyl]pyrazin-2-amine]"
15,< 0.001,"COc1ccc(Nc2cncc(-c3c(C(F)(F)F)nc4sccn34)n2)cc1 [compound 119, N-(4-methoxyphenyl)-6-[6-(trifluoromethyl)imidazo[2,1-b][1,3]thiazol-5-yl]pyrazin-2-amine]"
16,0.01 to 0.1,"FC(F)(F)Oc1ccc(Nc2cncc(-c3c(C(F)(F)F)nc4sccn34)n2)cc1 [compound 120, N-[4-(trifluoromethoxy)phenyl]-6-[6-(trifluoromethyl)imidazo[2,1-b][1,3]thiazol-5-yl]pyrazin-2-amine]"
17,0.001 to 0.01,"FC(F)Oc1ccc(Nc2cncc(-c3c(C(F)(F)F)nc4sccn34)n2)cc1 [compound 121, N-[4-(difluoromethoxy)phenyl]-6-[6-(trifluoromethyl)imidazo[2,1-b][1,3]thiazol-5-yl]pyrazin-2-amine]"
18,0.1 to 3,"FC(F)(F)c1nc2sccn2c1-c1cncc(Nc2ccccc2)n1 [compound 122, N-phenyl-6-[6-(trifluoromethyl)imidazo[2,1-b][1,3]thiazol-5-yl]pyrazin-2-amine]"

# Same assay, conditions: read-out: ELISA EC50 value for Bmi-1 protein, Table 1, Bmi-1 sandwich ELISA
row,Structure (SMILES),EC50 [µM]
1,"FC(F)Oc1ccc(Nc2cncc(-c3cccc4nc(C5CC5)cn34)n2)cc1 [compound 90, 6-(2-cyclopropylimidazo[1,2-a]pyridin-5-yl)-N-[4-(difluoromethoxy)phenyl]pyrazin-2-amine]",0.01 to 0.1
